Laboratory results published in publication PMC9476787 (Chinese Herbal Medicines, 2020).

Assays:
yeast α-glucosidase = assay: α-glucosidase inhibition assay; assay type: biochemical; conditions: read-out: IC50 α-Glucosidase; Table 2; mean ± SD, n = 3
[1] = target: T1, PTP1B (human, recombinant) (Homo sapiens, UniProt P18031); assay: PTP1B inhibition assay; assay type: biochemical
T1 sequence (P18031 1-435): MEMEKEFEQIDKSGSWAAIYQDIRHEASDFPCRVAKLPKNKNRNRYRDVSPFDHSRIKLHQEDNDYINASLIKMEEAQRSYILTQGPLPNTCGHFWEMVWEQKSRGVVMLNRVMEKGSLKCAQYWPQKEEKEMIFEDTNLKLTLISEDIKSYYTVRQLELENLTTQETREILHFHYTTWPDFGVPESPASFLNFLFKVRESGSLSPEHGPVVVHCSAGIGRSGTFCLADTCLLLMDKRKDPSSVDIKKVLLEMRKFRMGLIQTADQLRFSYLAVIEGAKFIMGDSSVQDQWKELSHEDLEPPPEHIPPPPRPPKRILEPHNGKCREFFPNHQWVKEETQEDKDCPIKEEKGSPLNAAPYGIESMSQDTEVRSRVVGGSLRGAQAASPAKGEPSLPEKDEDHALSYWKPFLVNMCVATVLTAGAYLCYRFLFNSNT

IC50 (yeast α-glucosidase) [µM]	IC50 [1] [µM]	SMILES
69.41 ± 0.03	> 100	CC[C@H](CC[C@@H](C)[C@H]1CC[C@H]2[C@@H]3CC=C4C[C@@H](O)CC[C@]4(C)[C@H]3CC[C@]12C)C(C)C [Compound 6, β-Sitosterol]
41.04 ± 0.34		CC1(C)CC[C@]2(C(=O)O)CC[C@]3(C)C(=CC[C@@H]4[C@@]5(C)CC[C@H](O)C(C)(C)[C@@H]5CC[C@]43C)[C@@H]2C1 [Compound 7, Oleanolic acid]
